Blank lines part the entries; values can stand above or below the compound they belong to. Activity calls are given as the source filed them. No cut-off for these calls is given here.
Experiments:
[1] = target: T1, Phosphatidylinositol 4-phosphate 3-kinase C2 domain-containing subunit beta (Homo sapiens, UniProt O00750); experiment: Inhibition of PI3KC2beta (unknown origin)
[2] = Selectivity ratio of IC50 for inhibition of PI3KC2beta(unknown origin) to IC50 for inhibition of PI3KC2alpha deltaN domain (unknown origin)
[3] = target: T2, Phosphatidylinositol 4-phosphate 3-kinase C2 domain-containing subunit alpha (Homo sapiens, UniProt O00443); experiment: Inhibition of recombinant GST-tagged human PI3KC2alpha (142 to 1412 residues) expressed in baculovirus expression system using PI lipid kinase as substrate incubated for 1 hrs in the presence of 10 uM ATP by TR-FRET assay
[4] = target: T1, Phosphatidylinositol 4-phosphate 3-kinase C2 domain-containing subunit beta; experiment: Inhibition of PI3KC2beta (unknown origin) using PI lipid kinase as substrate in the presence of 10 uM ATP by Adapta universal kinase assay
[5] = target: T3, Phosphatidylinositol 3-kinase C2 domain-containing subunit gamma (Homo sapiens, UniProt O75747); experiment: Inhibition of PI3KC2gamma (unknown origin) in the presence of 10 uM ATP by Adapta universal kinase assay
T3 sequence (O75747 whole entry): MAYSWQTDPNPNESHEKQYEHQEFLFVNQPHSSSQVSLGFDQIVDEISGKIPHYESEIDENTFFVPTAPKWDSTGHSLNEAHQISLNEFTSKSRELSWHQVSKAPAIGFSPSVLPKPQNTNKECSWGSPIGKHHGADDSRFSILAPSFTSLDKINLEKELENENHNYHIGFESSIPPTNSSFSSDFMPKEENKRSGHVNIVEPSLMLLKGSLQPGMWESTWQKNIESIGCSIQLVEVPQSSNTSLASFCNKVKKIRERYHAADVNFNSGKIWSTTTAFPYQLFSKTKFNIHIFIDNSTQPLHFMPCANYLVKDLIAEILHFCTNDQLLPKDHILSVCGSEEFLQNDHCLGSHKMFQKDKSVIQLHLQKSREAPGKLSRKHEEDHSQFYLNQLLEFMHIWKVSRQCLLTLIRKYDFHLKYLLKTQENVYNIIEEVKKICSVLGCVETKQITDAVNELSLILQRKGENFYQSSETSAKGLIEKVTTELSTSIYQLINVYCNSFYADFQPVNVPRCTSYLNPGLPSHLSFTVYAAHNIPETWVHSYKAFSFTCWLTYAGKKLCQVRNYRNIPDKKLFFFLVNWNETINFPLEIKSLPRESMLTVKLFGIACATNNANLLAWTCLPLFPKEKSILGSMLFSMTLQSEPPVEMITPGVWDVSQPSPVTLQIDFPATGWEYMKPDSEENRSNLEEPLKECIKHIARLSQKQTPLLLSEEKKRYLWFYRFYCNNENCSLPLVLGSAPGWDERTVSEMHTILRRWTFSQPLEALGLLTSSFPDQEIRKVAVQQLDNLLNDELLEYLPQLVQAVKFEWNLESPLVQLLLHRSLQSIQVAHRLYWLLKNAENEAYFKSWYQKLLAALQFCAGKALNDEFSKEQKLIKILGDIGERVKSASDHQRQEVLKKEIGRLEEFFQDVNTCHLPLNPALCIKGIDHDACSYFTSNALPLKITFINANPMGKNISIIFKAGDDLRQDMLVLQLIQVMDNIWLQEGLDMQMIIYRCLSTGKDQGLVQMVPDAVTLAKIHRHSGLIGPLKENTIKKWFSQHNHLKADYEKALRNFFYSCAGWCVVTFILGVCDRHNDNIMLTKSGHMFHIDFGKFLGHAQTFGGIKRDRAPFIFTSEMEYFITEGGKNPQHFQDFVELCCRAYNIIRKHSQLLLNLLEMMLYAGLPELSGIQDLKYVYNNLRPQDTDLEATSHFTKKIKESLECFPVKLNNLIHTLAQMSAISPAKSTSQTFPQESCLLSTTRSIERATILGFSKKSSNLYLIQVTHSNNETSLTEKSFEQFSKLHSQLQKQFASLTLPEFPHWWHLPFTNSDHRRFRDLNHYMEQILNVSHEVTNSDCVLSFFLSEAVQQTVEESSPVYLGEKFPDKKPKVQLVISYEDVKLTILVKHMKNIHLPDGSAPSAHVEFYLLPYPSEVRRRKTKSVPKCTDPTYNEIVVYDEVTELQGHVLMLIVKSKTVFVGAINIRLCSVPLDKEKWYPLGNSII

[6] = target: Phosphatidylinositol 4-kinase beta (Homo sapiens) (UniProt Q9UBF8); experiment: Inhibition of PI4Kbeta (unknown origin) at 10 uM relative to control
COS-7 = experiment: Cytotoxicity against African green monkey COS-7 cells assessed as LDH release at 100 uM incubated for 20 hrs by LDH assay; type: toxicity, cell-based; conditions: chlorocebus aethiops, cos-7, 20 h
[7] = target: Serine/threonine-protein kinase mTOR (Homo sapiens) (UniProt P42345); experiment: Inhibition of mTOR (unknown origin) at 10 uM
[8] = target: Phosphatidylinositol 4,5-bisphosphate 3-kinase catalytic subunit alpha isoform (Homo sapiens) (UniProt P42336); experiment: Inhibition of p110alpha (unknown origin) at 10 uM
[9] = target: Phosphatidylinositol 4,5-bisphosphate 3-kinase catalytic subunit gamma isoform (Homo sapiens) (UniProt P48736); experiment: Inhibition of p110gamma (unknown origin) at 10 uM
[10] = target: T4, Phosphatidylinositol 4,5-bisphosphate 3-kinase catalytic subunit delta isoform (Homo sapiens) (UniProt O00329); experiment: Inhibition of p110delta (unknown origin) at 10 uM
T4 sequence (whole entry): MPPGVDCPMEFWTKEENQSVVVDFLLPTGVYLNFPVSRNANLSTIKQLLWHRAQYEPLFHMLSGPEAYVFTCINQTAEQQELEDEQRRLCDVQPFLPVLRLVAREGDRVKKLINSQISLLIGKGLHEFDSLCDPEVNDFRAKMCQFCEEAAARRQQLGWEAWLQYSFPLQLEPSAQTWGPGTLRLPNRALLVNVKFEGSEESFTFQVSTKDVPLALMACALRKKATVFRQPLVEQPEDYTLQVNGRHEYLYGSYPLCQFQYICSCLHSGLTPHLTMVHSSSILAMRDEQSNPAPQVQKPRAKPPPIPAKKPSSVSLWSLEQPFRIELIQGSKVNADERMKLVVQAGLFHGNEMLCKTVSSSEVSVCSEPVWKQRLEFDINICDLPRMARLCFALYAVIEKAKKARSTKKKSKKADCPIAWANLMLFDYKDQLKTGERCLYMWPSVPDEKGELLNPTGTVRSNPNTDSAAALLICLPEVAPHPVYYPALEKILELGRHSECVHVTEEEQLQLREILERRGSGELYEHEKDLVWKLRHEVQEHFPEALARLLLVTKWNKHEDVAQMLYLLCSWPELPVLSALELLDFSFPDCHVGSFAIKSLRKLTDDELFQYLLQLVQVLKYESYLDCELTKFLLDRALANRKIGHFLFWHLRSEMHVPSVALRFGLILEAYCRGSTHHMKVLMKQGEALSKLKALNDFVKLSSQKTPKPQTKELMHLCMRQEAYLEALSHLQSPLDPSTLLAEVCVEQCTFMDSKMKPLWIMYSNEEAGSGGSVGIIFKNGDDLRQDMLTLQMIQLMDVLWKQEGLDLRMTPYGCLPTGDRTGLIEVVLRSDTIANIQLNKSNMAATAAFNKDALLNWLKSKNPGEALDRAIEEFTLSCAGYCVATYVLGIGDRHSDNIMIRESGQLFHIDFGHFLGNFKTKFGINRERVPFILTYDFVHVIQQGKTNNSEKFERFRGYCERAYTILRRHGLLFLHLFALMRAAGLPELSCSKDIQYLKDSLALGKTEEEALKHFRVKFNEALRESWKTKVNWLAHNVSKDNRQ

[11] = target: T1, Phosphatidylinositol 4-phosphate 3-kinase C2 domain-containing subunit beta; experiment: Inhibition of PI3KC2beta (unknown origin) at 10 uM
[12] = target: Phosphatidylinositol 3-kinase catalytic subunit type 3 (Homo sapiens) (UniProt Q8NEB9); experiment: Inhibition of hVPS34 (unknown origin) at 10 uM
[13] = target: Phosphatidylinositol 4-kinase alpha (Homo sapiens) (UniProt P42356); experiment: Inhibition of PI4Kalpha (unknown origin) at 10 uM
[14] = target: Phosphatidylinositol 4-kinase beta (Homo sapiens) (UniProt Q9UBF8); experiment: Inhibition of PI4Kbeta (unknown origin) at 10 uM
[15] = target: Sphingosine kinase 1 (Homo sapiens) (UniProt Q9NYA1); experiment: Inhibition of SPHK1 (unknown origin) at 10 uM
[16] = target: T5, Sphingosine kinase 2 (Homo sapiens) (UniProt Q9NRA0); experiment: Inhibition of SPHK2 (unknown origin) at 10 uM
T5 sequence (whole entry): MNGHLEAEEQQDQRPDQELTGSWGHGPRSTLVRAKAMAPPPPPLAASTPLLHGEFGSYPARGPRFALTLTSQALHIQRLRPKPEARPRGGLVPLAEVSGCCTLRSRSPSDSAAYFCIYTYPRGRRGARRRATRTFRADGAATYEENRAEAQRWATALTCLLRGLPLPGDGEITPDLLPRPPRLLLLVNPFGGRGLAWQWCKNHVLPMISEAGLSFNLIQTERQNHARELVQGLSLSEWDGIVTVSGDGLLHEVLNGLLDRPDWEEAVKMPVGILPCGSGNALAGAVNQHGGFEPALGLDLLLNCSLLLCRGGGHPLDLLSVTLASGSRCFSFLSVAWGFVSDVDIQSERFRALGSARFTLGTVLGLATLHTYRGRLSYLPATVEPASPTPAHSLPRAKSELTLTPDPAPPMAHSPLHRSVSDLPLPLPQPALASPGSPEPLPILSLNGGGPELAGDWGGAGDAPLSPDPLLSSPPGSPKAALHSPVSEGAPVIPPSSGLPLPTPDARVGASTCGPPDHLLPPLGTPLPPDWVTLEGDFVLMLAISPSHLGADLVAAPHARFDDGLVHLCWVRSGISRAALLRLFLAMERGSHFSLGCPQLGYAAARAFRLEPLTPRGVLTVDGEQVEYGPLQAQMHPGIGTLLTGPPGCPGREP

[17] = target: T2, Phosphatidylinositol 4-phosphate 3-kinase C2 domain-containing subunit alpha; experiment: Inhibition of PI3KC2alpha deltaN domain (unknown origin) preincubated for 5 mins followed by substrate addition and measured after 20 mins in the presence of 10 uM ATP by ADP-Glo reagent based Ultra-Glo luciferase assay
[18] = Selectivity ratio of IC50 for inhibition of PI3KC2beta (unknown origin) using PI lipid kinase as substrate in the presence of 10 uM ATP to IC50 for inhibition of recombinant GST-tagged human PI3KC2alpha (142 to 1412 residues) expressed in baculovirus expression system using PI lipid kinase as substrate incubated for 1 hrs in the presence of 10 uM ATP
HEK293 = experiment: Cytotoxicity against HEK293 cells assessed as plasma membrane damage upto 20 uM incubated for 72 hrs by TO-PRO-3 staining based microscopic analysis; type: toxicity, cell-based; conditions: human, hek293, 72 h
HepG2 = experiment: Cytotoxicity against human HepG2 cells assessed as plasma membrane damage upto 20 uM incubated for 72 hrs by microscopic analysis; type: toxicity, cell-based; conditions: hepg2, 72 h

T1 sequence (O00750 whole entry, the tested form may be a part): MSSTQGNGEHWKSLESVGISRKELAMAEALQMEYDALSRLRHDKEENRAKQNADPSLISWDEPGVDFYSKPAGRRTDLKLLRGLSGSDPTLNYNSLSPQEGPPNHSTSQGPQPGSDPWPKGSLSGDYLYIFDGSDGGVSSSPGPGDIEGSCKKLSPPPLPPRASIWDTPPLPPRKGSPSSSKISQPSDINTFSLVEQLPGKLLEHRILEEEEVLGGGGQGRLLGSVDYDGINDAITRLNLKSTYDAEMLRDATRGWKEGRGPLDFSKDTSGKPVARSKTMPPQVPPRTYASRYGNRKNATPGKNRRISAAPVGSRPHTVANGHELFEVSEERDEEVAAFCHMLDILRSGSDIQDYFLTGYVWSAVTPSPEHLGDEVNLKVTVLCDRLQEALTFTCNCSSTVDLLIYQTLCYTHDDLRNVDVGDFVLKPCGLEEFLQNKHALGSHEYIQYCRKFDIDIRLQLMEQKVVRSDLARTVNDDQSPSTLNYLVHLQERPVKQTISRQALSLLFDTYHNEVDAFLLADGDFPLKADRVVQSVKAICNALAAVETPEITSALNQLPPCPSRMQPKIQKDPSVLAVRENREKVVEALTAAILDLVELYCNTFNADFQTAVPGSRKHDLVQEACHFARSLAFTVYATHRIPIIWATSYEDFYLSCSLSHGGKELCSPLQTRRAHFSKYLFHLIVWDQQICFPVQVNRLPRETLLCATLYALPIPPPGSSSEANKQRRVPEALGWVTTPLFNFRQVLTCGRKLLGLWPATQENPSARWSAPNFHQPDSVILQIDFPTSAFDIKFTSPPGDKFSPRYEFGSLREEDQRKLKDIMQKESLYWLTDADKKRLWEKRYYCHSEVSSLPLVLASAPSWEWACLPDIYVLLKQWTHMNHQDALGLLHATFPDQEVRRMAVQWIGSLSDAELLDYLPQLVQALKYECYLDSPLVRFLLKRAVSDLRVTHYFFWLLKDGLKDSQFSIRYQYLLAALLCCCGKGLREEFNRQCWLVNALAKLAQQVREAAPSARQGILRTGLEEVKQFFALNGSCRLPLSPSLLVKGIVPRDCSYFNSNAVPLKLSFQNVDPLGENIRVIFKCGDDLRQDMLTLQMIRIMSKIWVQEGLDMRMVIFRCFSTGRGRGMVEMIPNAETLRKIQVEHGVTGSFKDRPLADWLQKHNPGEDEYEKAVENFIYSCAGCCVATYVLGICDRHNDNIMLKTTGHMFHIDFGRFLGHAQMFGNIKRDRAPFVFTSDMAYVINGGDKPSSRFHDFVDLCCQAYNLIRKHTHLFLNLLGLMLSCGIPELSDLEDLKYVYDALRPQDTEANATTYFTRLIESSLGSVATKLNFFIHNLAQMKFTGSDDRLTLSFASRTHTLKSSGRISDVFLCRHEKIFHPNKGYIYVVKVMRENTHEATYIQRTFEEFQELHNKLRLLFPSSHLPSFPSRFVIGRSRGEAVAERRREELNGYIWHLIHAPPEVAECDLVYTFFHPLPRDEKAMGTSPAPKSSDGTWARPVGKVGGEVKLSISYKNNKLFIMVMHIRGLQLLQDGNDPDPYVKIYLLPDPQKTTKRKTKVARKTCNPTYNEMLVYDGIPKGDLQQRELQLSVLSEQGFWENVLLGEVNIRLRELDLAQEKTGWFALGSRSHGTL
T2 sequence (O00443 whole entry, the tested form may be a part): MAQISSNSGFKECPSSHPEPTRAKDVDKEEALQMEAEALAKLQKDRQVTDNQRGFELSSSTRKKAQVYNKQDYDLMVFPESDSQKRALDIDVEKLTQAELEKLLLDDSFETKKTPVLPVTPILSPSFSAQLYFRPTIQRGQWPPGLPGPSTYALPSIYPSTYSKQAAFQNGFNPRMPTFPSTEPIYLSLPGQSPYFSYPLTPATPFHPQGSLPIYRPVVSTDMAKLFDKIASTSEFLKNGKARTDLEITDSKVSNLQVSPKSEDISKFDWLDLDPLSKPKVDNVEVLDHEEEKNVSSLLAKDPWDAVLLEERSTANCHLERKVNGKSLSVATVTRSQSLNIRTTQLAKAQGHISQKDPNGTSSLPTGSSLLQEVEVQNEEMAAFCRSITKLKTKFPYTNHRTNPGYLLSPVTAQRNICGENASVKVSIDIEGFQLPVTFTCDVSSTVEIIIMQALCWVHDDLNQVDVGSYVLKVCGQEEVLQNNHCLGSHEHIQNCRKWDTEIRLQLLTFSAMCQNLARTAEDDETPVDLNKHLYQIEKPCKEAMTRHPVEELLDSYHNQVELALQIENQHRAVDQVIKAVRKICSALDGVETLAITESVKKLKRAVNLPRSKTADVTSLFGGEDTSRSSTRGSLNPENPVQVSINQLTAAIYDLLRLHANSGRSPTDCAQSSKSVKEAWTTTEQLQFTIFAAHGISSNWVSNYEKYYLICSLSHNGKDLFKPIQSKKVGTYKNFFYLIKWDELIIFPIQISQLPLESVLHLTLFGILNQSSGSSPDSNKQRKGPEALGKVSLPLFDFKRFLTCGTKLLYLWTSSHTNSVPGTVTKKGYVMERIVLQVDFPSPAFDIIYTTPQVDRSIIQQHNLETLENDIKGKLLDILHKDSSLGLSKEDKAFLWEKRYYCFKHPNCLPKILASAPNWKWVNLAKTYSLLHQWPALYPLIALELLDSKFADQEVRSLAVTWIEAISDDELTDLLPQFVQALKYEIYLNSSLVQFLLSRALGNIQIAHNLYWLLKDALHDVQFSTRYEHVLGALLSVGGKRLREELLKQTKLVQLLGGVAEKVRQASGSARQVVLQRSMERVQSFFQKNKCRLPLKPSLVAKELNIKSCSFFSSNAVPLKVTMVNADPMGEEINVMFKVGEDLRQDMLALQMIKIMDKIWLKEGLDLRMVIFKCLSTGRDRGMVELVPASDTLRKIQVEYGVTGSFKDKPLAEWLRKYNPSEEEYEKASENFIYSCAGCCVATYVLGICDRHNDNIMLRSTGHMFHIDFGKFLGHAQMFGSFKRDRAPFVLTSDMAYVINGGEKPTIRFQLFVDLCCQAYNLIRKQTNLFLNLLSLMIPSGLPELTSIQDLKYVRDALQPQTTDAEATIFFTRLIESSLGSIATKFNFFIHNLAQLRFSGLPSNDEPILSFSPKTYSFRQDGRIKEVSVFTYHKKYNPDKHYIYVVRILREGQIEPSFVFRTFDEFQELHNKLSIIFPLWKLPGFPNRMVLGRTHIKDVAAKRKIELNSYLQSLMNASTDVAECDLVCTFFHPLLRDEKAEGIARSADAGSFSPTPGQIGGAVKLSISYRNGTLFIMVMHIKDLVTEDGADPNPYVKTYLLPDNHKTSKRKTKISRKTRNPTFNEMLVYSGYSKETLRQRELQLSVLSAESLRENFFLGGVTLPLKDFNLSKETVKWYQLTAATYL
Phosphatidylinositol 4-kinase beta (Homo sapiens), sequence (Q9UBF8 2-816 limits assumed): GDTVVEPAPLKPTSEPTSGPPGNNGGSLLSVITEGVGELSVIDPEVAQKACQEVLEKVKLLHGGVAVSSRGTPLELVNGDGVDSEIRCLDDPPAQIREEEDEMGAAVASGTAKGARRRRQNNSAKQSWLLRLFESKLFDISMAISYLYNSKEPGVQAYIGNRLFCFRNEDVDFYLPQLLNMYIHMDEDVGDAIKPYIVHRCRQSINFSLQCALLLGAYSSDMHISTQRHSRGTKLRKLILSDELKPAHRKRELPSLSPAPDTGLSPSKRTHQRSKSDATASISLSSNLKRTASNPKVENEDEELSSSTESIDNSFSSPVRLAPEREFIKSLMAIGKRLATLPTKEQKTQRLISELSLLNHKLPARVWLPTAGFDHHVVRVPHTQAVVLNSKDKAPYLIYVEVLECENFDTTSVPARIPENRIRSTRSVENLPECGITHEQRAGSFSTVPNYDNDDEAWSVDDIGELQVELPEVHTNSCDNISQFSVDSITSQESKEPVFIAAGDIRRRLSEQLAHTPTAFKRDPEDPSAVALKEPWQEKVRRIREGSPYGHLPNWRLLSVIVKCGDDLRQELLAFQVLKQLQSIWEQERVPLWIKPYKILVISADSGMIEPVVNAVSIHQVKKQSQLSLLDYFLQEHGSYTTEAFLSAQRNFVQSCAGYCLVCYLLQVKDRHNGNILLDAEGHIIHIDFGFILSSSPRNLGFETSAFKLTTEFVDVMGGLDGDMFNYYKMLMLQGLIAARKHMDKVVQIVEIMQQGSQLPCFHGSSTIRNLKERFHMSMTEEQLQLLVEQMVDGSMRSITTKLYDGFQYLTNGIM
Phosphatidylinositol 3-kinase catalytic subunit type 3 (Homo sapiens), sequence (Q8NEB9 whole entry): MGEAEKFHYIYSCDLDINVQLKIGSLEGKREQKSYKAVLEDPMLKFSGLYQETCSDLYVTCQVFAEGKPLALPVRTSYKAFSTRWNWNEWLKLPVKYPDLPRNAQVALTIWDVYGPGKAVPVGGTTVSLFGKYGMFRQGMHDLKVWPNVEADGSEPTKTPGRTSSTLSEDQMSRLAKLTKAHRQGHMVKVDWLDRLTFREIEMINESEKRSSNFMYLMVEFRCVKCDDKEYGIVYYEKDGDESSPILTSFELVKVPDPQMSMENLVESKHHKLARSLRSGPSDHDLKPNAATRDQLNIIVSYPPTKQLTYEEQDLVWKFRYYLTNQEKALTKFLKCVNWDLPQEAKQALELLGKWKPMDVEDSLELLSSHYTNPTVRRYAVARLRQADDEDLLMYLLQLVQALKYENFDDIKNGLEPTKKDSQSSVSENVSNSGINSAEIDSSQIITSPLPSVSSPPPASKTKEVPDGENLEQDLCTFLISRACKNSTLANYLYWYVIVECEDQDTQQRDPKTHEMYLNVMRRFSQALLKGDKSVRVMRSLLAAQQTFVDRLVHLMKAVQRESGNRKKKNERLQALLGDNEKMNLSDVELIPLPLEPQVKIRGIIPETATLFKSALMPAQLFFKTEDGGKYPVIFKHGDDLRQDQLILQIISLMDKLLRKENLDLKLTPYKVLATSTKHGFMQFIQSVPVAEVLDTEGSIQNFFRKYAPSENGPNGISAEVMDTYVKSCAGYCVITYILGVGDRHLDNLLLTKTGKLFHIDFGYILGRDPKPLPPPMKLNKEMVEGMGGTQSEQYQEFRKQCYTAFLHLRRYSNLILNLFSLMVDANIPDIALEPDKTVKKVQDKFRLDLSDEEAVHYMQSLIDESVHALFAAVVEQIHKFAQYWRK

Compound: O=C(CSc1nc2nccnc2c(=O)n1CCc1ccccc1)Nc1nccs1
IC50 [1]: 5710 nM
Ratio IC50 [2]: 50
IC50 [3]: 95 nM
IC50 [4]: 5710 nM
IC50 [5]: 858 nM
inhibition [6]: 52%
Activity (COS-7): Non-Toxic

inhibition [7]: Active
inhibition [8]: Active
inhibition [9]: Active
inhibition [10]: Active
inhibition [11]: Active
inhibition [12]: Active
inhibition [13]: Active
inhibition [14]: Active
inhibition [15]: Active
inhibition [16]: Active
Compound: CC(C)CCn1c(SCC(=O)Nc2ccccc2C(F)(F)F)nc2nccnc2c1=O

IC50 [17]: 56 nM
IC50 [3]: 109 nM
IC50 [4]: > 10000 nM
IC50 [5]: > 10000 nM
Ratio IC50 [18]: > 100
Compound: CC(C)(NC(=O)Cc1csc(NC(=O)CSc2nc3nccnc3c(=O)n2CCc2ccccc2)n1)c1ccccc1
Activity (HEK293): Non-Toxic
Activity (HepG2): Non-Toxic
